The record followed here is patent US7820624B2, “Peptide ligands” (ICH Productions Limited, priority 2003, dated 2010).

For data set [1], the system named is human monocyte-derived immature dendritic cells. It counts as cell-based. The conditions noted are these: 100,000 viral particles/cell. From the text:
Ad5 particles with the DC-binding peptides incorporated into the HI loop of the fibre protein were produced essentially as described previously ^12. Complementary oligonucleotides encoding the peptide sequences SHVKLNS [SEQ. ID. NO.:29] (5′ CC GGAAGCCACGTGAAGCTGAACAGCG 3′ [SEQ. ID. NO.:58] and 5′ CC GGCGCTGTTCAGCTTCACGTG GCTT 3′[SEQ. ID. NO.:59]) or APSNSTA [SEQ. ID. NO.:15] (5′ CC GGAGCCCCCAGCAACAGCACCGCCG 3′ [SEQ. ID. NO.:61] and 5′ CC GGCGGCGGTGCTGTTGCTGGG GGCT 3′ [SEQ. ID. NO.:62]) were synthesized (Operon Technologies, Alameda Calif. U.S.A.). The oligo pairs were then kinased, annealed, and ligated into the unique BspE1 site of pDV137 ^12, an expression construct encoding an Ad5 fibre protein with a double point mutant (KO1) which blocks CAR binding and a linker/restriction site in the HI loop, to create pDV178 (SHVKLNS) and pDV179 (APSNSTA). Following sequence confirmation, the plasmids were used to trans-complement the fibre-deleted vector Ad5.GFP.δF^18 by transient transfection into 293 cells as described ^19. Viral particles were purified by freeze/thaw lysis and CsCl gradient centrifugation and dialyzed into 40 mM TRIS-pH 8.1/0.9% NaCl/10% glycerol and stored at −80° C. Virus was quantified by protein assay (BioRad, Hercules Calif., U.S.A.) against BSA standards and using the relation 1 μg viral protein=4×10^9 viral particles.
Retargeted adenoviruses carrying a peptide A or B were used for the transduction experiments described below. Wild type adenovirus type 5 and type 5 adenovirus having a KO1 fibre, all supplied by Dr Dan von Seggern, and as described in Nicklin 2001 Mol Ther 2001 Dec.; 4(6):534-42), were used as controls.
(§1) Day 6 dendritic cells (see Example 1(v) above), or mouse bone marrow derived dendritic cells or mouse Sca1+ve stem cells, see (i) and (ii) above, were plated at 5×10^4 cells per well in a 48 well plate in 500 μl complete medium and allowed to settle for 3 hours at 37° C. Transductions were carried out in complete media, with virus being added at 100,000 viral particles/cell for 24 hours. Cells were harvested by scraping, spun down at 650 g (2000 rpm) for 5 min, resuspended in 300 μl PBS, and kept on ice before analysis. Viral transduction as determined by percentage of GFP positive cells was measured by FACS analysis. To measure percentage viability, 10 μl of 7-amino-actinomycin D (7AAD; Sigma, Poole, Dorset) was added immediately prior to analysis. Viral transduction of macrophages was carried out at 10,000 particles/cell in medium containing 2.5% FCS. For other cell types, cells were seeded overnight at 5×10^4 cells per well in 24-well plates in the appropriate media. Adenovirus was added in OptiMEM at 10,000 viral particles/cell, 1 ml per well in triplicate and incubated for 24 h at 37° C. Cells were then washed twice in PBS, trypsinised, triplicate wells pooled, spun down at 350×g for 5 min and resuspended in 300 μl PBS before analysis by flow cytometry where cell viability was to be measured, 10 μl 7AAD was added just prior to analysis.
Cells were pooled from three separate transduction experiments for the calculation of results.

The subject of data set [2] is human monocyte-derived primary macrophages. The experiment in a line: Adenoviral transduction of primary macrophages. It counts as cell-based. The conditions noted are these: 10,000 viral particles/cell in 2.5% serum. The method, then: as §1
10 mls of peripheral blood were diluted 1:1 with HBSS then layered on Lymphoprep (Nycomed), spun at 750 g for 30 min and purified […] were isolated from the interface. Excess Lymphoprep was removed by spinning cells down at 250 g for 10 min and any platelets present were removed by washing in HBSS twice, spinning the cells at 1200 rpm for 10 min each time. Monocytes were then isolated using MACs CD14 microbeads as described in the manufacturer's protocol. The mononuclear cells were plated into a […] flask in 10% FCS, RPMI for 1-2 hours (1 flask per 10 ml blood) before removing the supernatant and adding fresh 10% FCS, RPMI+10 ng/ml MCSF (macrophage colony stimulating factor). Half the medium was replaced with fresh 10% FCS, RPMI+MCSF (10 ng/ml) after 48 hours and the cells were used at day 6, harvesting by scraping the cells from the well.
Viral transduction was carried out at 10,000 particles/cell in medium containing 2.5% FCS. Viral transduction as determined by percentage of GFP positive cells was measured by FACS analysis. Cells were pooled from three separate transduction experiments for the calculation of results.

The next data set deals with 1HAEo- cells. The experiment in a line: Adenoviral transduction of 1HAEo- cells. The format is cell-based, human. To be noted: 10,000 particles per cell in OptiMEM. The method, then:
as §1, with “For other cell types, cells were seeded overnight at 5×10^4 cells per well in 24-well plates in the appropriate media. Adenovirus was added in OptiMEM at 10,000 viral particles/cell, 1 ml per well in triplicate and incubated for 24 h at 37° C.” left out
(§2) For transduction of these other cell types, cells were seeded overnight at 5×10^4 cells per well in 24 well plates in the appropriate media. […] Where cell viability was to be measured, 10 μl 7-amino-actinomycin D (7AAD; Sigma, Poole, Dorset) was added just prior to analysis. […]

The next data set relates to HMEC-1 cells. The experiment in a line: Adenoviral transduction of HMEC-1 cells. To be noted: 10,000 particles per cell in OptiMEM. It counts as cell-based, human. On the procedure: as §1, with “For other cell types, cells were seeded overnight at 5×10^4 cells per well in 24-well plates in the appropriate media. Adenovirus was added in OptiMEM at 10,000 viral particles/cell, 1 ml per well in triplicate and incubated for 24 h at 37° C.” left out
as §2

A further data set deals with HepG2 cells. Briefly: Adenoviral transduction of HepG2 cells. The format is cell-based, human. To be noted: 10,000 particles per cell in OptiMEM. On the procedure: as §1, with “For other cell types, cells were seeded overnight at 5×10^4 cells per well in 24-well plates in the appropriate media. Adenovirus was added in OptiMEM at 10,000 viral particles/cell, 1 ml per well in triplicate and incubated for 24 h at 37° C.” left out
as §2

For data set [3], the system named is primary mouse dendritic cells. The experiment in a line: Adenoviral transduction of mouse dendritic cells. The format is cell-based. The conditions noted are these: bone marrow derived DCs. The method, then: Mouse dendritic cells were prepared from whole bone marrow flushed from the marrow cavities of the femur and tibia of 5-7 week old A/J mice and cultured in Hepes buffered RPMI+Glutamax (InVitrogen, Paisley, U. K.) supplemented with 10% FCS, penicillin/streptomycin and 20 ng/ml recombinant GM-CSF. Cytokines were added to the same concentration on day 3 and the dendritic cells isolated from the floating cell fraction by MACs CD11c microbeads (Miltenyi Biotec, Bisley, U. K.) on day 6.
as §1, with “To measure percentage viability, 10 μl of 7-amino-actinomycin D (7AAD; Sigma, Poole, Dorset) was added immediately prior to analysis. Viral transduction of macrophages was carried out at 10,000 particles/cell in medium containing 2.5% FCS. For other cell types, cells were seeded overnight at 5×10^4 cells per well in 24-well plates in the appropriate media. Adenovirus was added in OptiMEM at 10,000 viral particles/cell, 1 ml per well in triplicate and incubated for 24 h at 37° C.” left out

The test system of data set [4] is mouse Sca1-positive stem cells. The experiment in a line: Adenoviral transduction of mouse Sca1+ve stem cells. The format is cell-based. On the procedure: Mouse bone marrow cells were isolated as above and Sca1+ve cells were isolated using MACs Sca1 microbeads (Miltenyi Biotec, Bisley, U.K.). These cells were plated at 7×10^4 cells/500 μl in RPMI with Glutamax-1 containing 30% FCS and penicillin/streptomycin and the following cytokines murine SCF (50 ng/ml; Preprotech, London, UK), IL-6 (20 ng/ml; Preprotech, London, UK) and Flt3-L (10 ng/ml) (R&D Systems, Oxford, U. K.).
as §1, with “To measure percentage viability, 10 μl of 7-amino-actinomycin D (7AAD; Sigma, Poole, Dorset) was added immediately prior to analysis. Viral transduction of macrophages was carried out at 10,000 particles/cell in medium containing 2.5% FCS. For other cell types, cells were seeded overnight at 5×10^4 cells per well in 24-well plates in the appropriate media. Adenovirus was added in OptiMEM at 10,000 viral particles/cell, 1 ml per well in triplicate and incubated for 24 h at 37° C.” left out

For another data set, the system named is Neuro-2A cells. Briefly: Adenoviral transduction of Neuro-2A cells. It counts as cell-based, mouse. To be noted: 10,000 particles per cell in OptiMEM. The method, then:
as §1, with “For other cell types, cells were seeded overnight at 5×10^4 cells per well in 24-well plates in the appropriate media. Adenovirus was added in OptiMEM at 10,000 viral particles/cell, 1 ml per well in triplicate and incubated for 24 h at 37° C.” left out
as §2

Data set [5] concerns day 6 immature dendritic cells. The experiment in a line: Maturation of adenovirus-transduced dendritic cells in response to LPS (marker flow cytometry). To be noted: LPS 50 ng/ml; virus 100,000 particles per cell. The format is cell-based, human. On the procedure:
Day 6 immature dendritic cells were infected with retargeted Ad or Ad5 at 100,000 particles per cell in complete medium for 24 hours, with E. coli 026:B6 lipopolysaccharide (LPS) added following 3 hours incubation at a concentration of 50 ng/ml. As controls, dendritic cells were either incubated in complete medium for 24 hours or matured by the addition of LPS in complete medium for 24 hours, In all samples IL-4 and GM-CSF were present in the complete medium at 25 ng/ml and 100 ng/ml respectively. Cells were then phenotyped by staining as follows: a minimum of 5×10^4 cells in a volume of less than 2 ml medium were added to the recommended amount of antibody and incubated for 20 min on ice. 2 ml of ice-cold PBS was added before centrifugation at 300×g for 5 min at 4° C. The supernatant was flicked off and the pellet resuspended in 300 μl ice cold PBS. Cells from each sample were stained with antibodies to HLA-DR, CD40, CD80, CD83, CD86 and isotype matched control antibodies. Where cell viability was also measured, […] of 7AAD was added immediately prior to analysis. Cells were analysed by flow cytometry using a Epics XL (Beckman Coulter, High Wycombe, UK.) and the EXPO32 analysis software (Beckman Coulter).
(In general: A flow cytometer gives signals particle by particle.)

For the substance “APSNSTA (Synthetic peptide binding to dendritic cells)”, in [1] (complete medium, 24 hours, donor A), the “Transduction (% GFP positive cells), donor A” value was 65.1%. Further, the “Transduction (% GFP positive cells), donor B” value in data set [1] (complete medium, 24 hours, donor B) turned out to be 78.9%. Moreover, the “Percentage cell death, donor A” value in [1] (donor A, 7AAD) is listed as “(6.6) %”. The “Percentage cell death, donor B” value in data set [1] (donor B, 7AAD) is listed as “(11.6) %”. The “Transduction, % cells transduced” value in [2] is 34.6%; in [2] (listed as B), 34.6%; in the data set with 1HAEo- cells, 79%; with HMEC-1 cells, 94.2%; with HepG2 cells, 79.7%. The values for the Transduction efficiency in [3] and in data set [4] were 54.1% and 5.4%, respectively. Besides, the “Transduction, % GFP-positive cells” value with Neuro-2A cells is reported as 53.7%. The CD40 positive cells in data set [5] turned out to be 9.8%. For the same substance, in data set [5], the CD80 positive cells was determined as 10.7%. Moreover, in data set [5], the CD83 positive cells turned out to be 18.0%. Moreover, in data set [5], the CD86 positive cells is listed as 96.7%. Further, in data set [5], the HLA-DR positive cells is reported as 72.9%.
